In US20210198277A1, “AMINE-SUBSTITUTED ARYL OR HETEROARYL COMPOUNDS” (Epizyme, Inc., priority 2016, published 2021):

Experiments:
human EHMT2 913-1193 = target: T1, human EHMT2 913-1193 (Homo sapiens, UniProt Q96KQ7); test: EHMT2 enzyme assay on histone peptide substrate (EHMT2 PEP); format: biochemical; details: Table VI; read-out: EHMT2 PEP IC50
T1 construct: recombinant purified human EHMT2 913-1193, Viva; purchased Viva
T1 sequence (Q96KQ7 913-1193): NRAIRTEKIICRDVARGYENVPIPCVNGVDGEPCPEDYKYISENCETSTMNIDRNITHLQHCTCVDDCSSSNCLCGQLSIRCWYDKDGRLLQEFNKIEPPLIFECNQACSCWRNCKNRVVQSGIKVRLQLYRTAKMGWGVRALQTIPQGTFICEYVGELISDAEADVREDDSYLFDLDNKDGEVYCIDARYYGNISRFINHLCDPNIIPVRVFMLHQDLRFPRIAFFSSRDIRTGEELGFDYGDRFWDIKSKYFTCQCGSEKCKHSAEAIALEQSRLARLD
In short: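 Radiometric methyltransferase assay: 0.031 nM EHMT2 913-1193 preincubated 30 min with compound (10-point 3-fold series, top final 50 μM, 2% DMSO) in 20 mM Bicine pH 7.5, 1 mM TCEP. Biotinylated histone peptide methylated with ^3H-SAM for 60 min at room temperature, quenched with unlabeled SAM, captured on streptavidin Flashplates and counted.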

EHMT1 = target: T2, EHMT1 (Homo sapiens, UniProt Q9H9B1); test: EHMT1 enzyme assay on peptide substrate (EHMT1 PEP); format: biochemical; details: Table VI; read-out: EHMT1 PEP IC50
T2 sequence (Q9H9B1 1-1298): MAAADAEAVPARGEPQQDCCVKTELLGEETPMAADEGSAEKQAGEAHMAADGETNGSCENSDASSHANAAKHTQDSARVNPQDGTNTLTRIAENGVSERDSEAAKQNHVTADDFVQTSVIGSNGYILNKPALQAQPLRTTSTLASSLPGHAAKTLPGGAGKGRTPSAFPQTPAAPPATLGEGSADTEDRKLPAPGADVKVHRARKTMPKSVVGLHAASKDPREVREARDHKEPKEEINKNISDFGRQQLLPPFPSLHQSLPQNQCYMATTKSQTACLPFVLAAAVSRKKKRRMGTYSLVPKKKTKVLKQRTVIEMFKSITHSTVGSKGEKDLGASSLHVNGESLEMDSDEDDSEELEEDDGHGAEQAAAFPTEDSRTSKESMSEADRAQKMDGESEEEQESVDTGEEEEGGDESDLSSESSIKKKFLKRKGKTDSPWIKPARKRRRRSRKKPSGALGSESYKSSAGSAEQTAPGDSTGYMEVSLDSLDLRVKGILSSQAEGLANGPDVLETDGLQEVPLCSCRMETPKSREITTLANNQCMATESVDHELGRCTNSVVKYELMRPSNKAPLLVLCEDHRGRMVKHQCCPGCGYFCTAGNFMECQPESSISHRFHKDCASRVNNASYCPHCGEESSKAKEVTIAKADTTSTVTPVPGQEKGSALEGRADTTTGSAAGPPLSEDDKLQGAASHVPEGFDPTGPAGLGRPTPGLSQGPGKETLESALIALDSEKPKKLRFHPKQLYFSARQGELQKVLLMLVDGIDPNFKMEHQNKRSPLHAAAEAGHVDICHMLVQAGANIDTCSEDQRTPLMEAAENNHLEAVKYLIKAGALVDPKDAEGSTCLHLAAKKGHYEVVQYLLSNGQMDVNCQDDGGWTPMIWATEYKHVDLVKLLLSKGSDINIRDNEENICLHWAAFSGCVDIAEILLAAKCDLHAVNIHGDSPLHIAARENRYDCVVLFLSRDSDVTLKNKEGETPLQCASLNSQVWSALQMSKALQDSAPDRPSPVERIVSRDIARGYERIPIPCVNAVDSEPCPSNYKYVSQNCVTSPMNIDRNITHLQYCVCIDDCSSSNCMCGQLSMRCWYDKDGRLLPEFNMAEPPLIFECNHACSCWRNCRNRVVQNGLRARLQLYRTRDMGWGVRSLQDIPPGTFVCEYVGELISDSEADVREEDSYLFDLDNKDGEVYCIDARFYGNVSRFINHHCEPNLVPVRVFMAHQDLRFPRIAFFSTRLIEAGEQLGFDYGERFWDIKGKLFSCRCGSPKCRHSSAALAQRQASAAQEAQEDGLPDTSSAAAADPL

Row | SMILES | IC50 (human EHMT2 913-1193) | IC50 (EHMT1)
1 | CCN1CCO[C@@H](COc2cc(Nc3nccc(NC)n3)ccc2OC)C1 [Compound 932] | > 10000 nM | 1000 to 10000 nM
2 | CNc1cc(C)nc(Nc2ccc(OC)c(C(=O)NC3CCN(C)CC3)c2)n1 [Compound 873] | > 10000 nM | > 10000 nM
3 | CNc1ccnc(Nc2ccc(OC)c(OC[C@H]3CN(C)CCO3)c2)n1 [Compound 931] | > 10000 nM | > 10000 nM
4 | COc1cnc(Nc2cccc3[nH]nnc23)cc1OCCCN1CCCC1 [Compound 619] | > 10000 nM | > 10000 nM
5 | CNc1cc(C)nc(Nc2ccc(CNC(=O)c3ccccc3)c(OC)c2)n1 [Compound 876] | > 10000 nM | > 10000 nM
6 | CNC(=O)C1CCN(c2cc3nc(NC)cc(C)c3cc2OC)C1 (centres unmarked) [Compound 900] | > 10000 nM | > 10000 nM
7 | CNc1cc(C)nc(Nc2c[nH]c(=O)c(OCCCN3CCCC3)c2)n1 [Compound 621] | > 10000 nM | 1000 to 10000 nM
8 | CNc1nc2cc(OCCCN3CCCC3)c(OC)cc2cc1F [Compound 897] | > 10000 nM | 1000 to 10000 nM
9 | CCN1CCO[C@H](COc2cc(Nc3nccc(NC)n3)ccc2OC)C1 [Compound 937] | > 10000 nM | > 10000 nM
10 | CNC[C@@H](O)COc1cc(Nc2nccc(NC)n2)cnc1OC [Compound 918] | 1000 to 10000 nM | 100 to 1000 nM
11 | CNc1cc(C)nc(Nc2ccc(OC)c(OCCCc3nc(Cl)c[nH]3)c2)n1 [Compound 890] | > 10000 nM | > 10000 nM
12 | CCN1CCC(O)(COc2cc(Nc3nccc(NC)n3)ccc2OC)C1 (centres unmarked) [Compound 1007] | > 10000 nM | 1000 to 10000 nM
13 | CNc1cc(C)nc(Nc2ccc(OC)c(C(=O)NCc3ccccc3)c2)n1 [Compound 871] | > 10000 nM | > 10000 nM
14 | CNc1ccnc(Nc2ccc(OC)c(OCC(C)(O)CN3CCC3)c2)n1 (centres unmarked) [Compound 1005] | 1000 to 10000 nM | 1000 to 10000 nM
15 | COc1ccc(Nc2nc(C)cc(C3CCOCC3)n2)cc1OCCCN1CCCC1 [Compound 870] | > 10000 nM | > 10000 nM
16 | CNc1cc(C)nc(Nc2cc(OC[C@H](O)CN3CCCC3)c(OC)cn2)n1 [Compound 886] | 1000 to 10000 nM | 1000 to 10000 nM
17 | CCN1CC(COc2cc(Nc3cccn4cnnc34)ncc2OC)C1 [Compound 620] | > 10000 nM | > 10000 nM
18 | CNc1ccnc(Nc2ccc(OC)c(OC[C@@H](O)CN3CCC3)c2)n1 [Compound 907] | 1000 to 10000 nM | 100 to 1000 nM
19 | CNCCCOc1cc(Nc2nccc(NC)n2)cnc1OC [Compound 917] | 1000 to 10000 nM | 100 to 1000 nM
20 | CNc1ccnc(Nc2ccc(OC)c(OC[C@H]3CNCCO3)c2)n1 [Compound 933] | > 10000 nM | 1000 to 10000 nM
21 | CNc1ccnc(Nc2ccc(OC)c(OC[C@@H](C)CN3CCC3)c2)n1 [Compound 943] | 1000 to 10000 nM | 1000 to 10000 nM
22 | COc1cc2cc(C#N)c(C)nc2cc1OCCCN1CCCC1 [Compound 895] | > 10000 nM | > 10000 nM
23 | CNC[C@@H](COc1cc(Nc2nccc(NC)n2)ccc1OC)OC [Compound 922] | 1000 to 10000 nM | 1000 to 10000 nM
24 | CNc1cc(C)nc(Nc2cc(OCCCN3CCCC3)c3nncn3c2)n1 [Compound 622] | 1000 to 10000 nM | 1000 to 10000 nM
25 | CNc1ccnc(Nc2ccc(OC)c(OC[C@@H]3CN(C)CCO3)c2)n1 [Compound 936] | > 10000 nM | > 10000 nM
26 | CNc1cc(C)nc(Nc2cc(OC[C@@H](O)CN3CCCC3)c(OC)cn2)n1 [Compound 885] | 1000 to 10000 nM | 1000 to 10000 nM
27 | COc1ncc(Nc2nc(C)cc(NCC3COC3)n2)cc1OC[C@H](O)CN1CCCC1 [Compound 884] | > 10000 nM | > 10000 nM

Results, then the compound that gave them:

Row | IC50 (human EHMT2 913-1193) | IC50 (EHMT1) | SMILES
28 | < 100 nM | < 100 nM | CNc1cc(C2CCN([C@@H]3CCOC3)CC2)c2cc(OC)c(OCCCN3CCCC3)cc2n1 [Compound 866]
29 | 100 to 1000 nM | 100 to 1000 nM | CNc1cc(C)nc(Nc2cnc(OC)c(OC[C@@H](O)CN3CCCC3)c2)n1 [Compound 881]
30 | 1000 to 10000 nM | 1000 to 10000 nM | CNCC(C)COc1cc(Nc2nccc(NC)n2)ccc1OC (centres unmarked) [Compound 1009]
31 | 100 to 1000 nM | < 100 nM | CNc1cc(C)nc(Nc2cnc(OC)c(OCCCN3CCC3)c2)n1 [Compound 949]
32 | 100 to 1000 nM | 100 to 1000 nM | CNc1cc(C)nc(Nc2cnc(OC)c(OC[C@H](O)CN3CCCC3)c2)n1 [Compound 882]
33 | 100 to 1000 nM | < 100 nM | CCN1CC(COc2cc3nc(NC)nc(C4CCN(C)CC4)c3cc2OC)C1 [Compound 951]
34 | < 100 nM | < 100 nM | CNc1ccnc(Nc2ccc(OC)c(OC[C@H](O)CN3CCC3)c2)n1 [Compound 908]
35 | 100 to 1000 nM | 100 to 1000 nM | COc1cnc(Nc2cc(NCC3COC3)cnn2)cc1OCCCN1CCCC1 [Compound 894]
36 | 1000 to 10000 nM | 1000 to 10000 nM | CNc1cc(C)nc(Nc2cc(OCCCN3CCCC3)c3ncnn3c2)n1 [Compound 623]
37 | 1000 to 10000 nM | 1000 to 10000 nM | CNCCC(C)Oc1cc(Nc2nccc(NC)n2)ccc1OC (centres unmarked) [Compound 1011]
38 | 100 to 1000 nM | < 100 nM | COc1ccc(Nc2nc(C)cc(NCCS(=O)(=O)N(C)C)n2)cc1OCCCN1CCCC1 [Compound 893]
39 | < 100 nM | < 100 nM | CNS(=O)(=O)CCNc1cc(C)nc(Nc2ccc(OC)c(OCCCN3CCCC3)c2)n1 [Compound 892]
40 | < 100 nM | < 100 nM | COc1cc2c(C3CCN(C)CC3)cc(N3CCCC3)nc2cc1OCCCN1CCCC1 [Compound 625]
41 | 100 to 1000 nM | < 100 nM | CNCCCOc1cc(Nc2nccc(NC)n2)ccc1OC [Compound 916]
42 | 100 to 1000 nM | < 100 nM | CCN1CC[C@@H](COc2cc(Nc3nccc(NC)n3)ccc2OC)C1 [Compound 927]
43 | < 100 nM | < 100 nM | CNc1cc(C2CCN([C@H]3CCOC3)CC2)c2cc(OC)c(OCCCN3CCCC3)cc2n1 [Compound 867]
44 | 100 to 1000 nM | < 100 nM | CNc1cc(C)nc(Nc2cc(OCCCN3CCCC3)c3[nH]nnc3c2)n1 [Compound 624]
45 | < 100 nM | < 100 nM | CNc1cc(C2CCOCC2)c2cc(OC)c(OCCCN3CC(O)C3)cc2n1 [Compound 902]
46 | 100 to 1000 nM | < 100 nM | CNc1ccnc(Nc2ccc(OC)c(OC[C@H](C)CN3CCC3)c2)n1 [Compound 945]
47 | < 100 nM | < 100 nM | COc1cc2c(C3CCN([C@H]4CCOC4)CC3)cc(C)nc2cc1OCCCN1CCCC1 [Compound 864]
48 | 100 to 1000 nM | < 100 nM | CNc1ccnc(Nc2cnc(OC)c(OCCCN3CCC3)c2)n1 [Compound 914]
49 | 100 to 1000 nM | < 100 nM | CNc1ccnc(Nc2cnc(OC)c(OC[C@@H]3CCN(C)C3)c2)n1 [Compound 912]
50 | 100 to 1000 nM | 100 to 1000 nM | CNc1ccnc(Nc2ccc(OC)c(OC[C@H](CN3CCCC3)OC)c2)n1 [Compound 920]
51 | < 100 nM | < 100 nM | CNc1cc(C)nc(Nc2ccc(OC)c(OCC(O)CN3CCCC3)c2)n1 (stereo in doubt) [Compound 906, (2S)-1-(2-methoxy-5-[[4-methyl-6-(methylamino)pyrimidin-2-yl]amino]phenoxy)-3-(pyrrolidin-1-yl)propan-2-ol]
52 | 100 to 1000 nM | < 100 nM | CCN1CCC(O)(COc2cc(Nc3nccc(NC)n3)ccc2OC)C1 (centres unmarked) [Compound 1006]
